Source: BigSolDB 2.1

Cc1c(C(=O)O)cccc1[N+](=O)[O-]
solubility (mole fraction)
Conditions	278.15 K	283.15 K	288.15 K	293.15 K	298.15 K	303.15 K	308.15 K	313.15 K
in 1,4-dioxane	–	–	0.0933	0.102	0.112	0.121	0.132	0.143
in DMF	0.147	0.166	0.191	0.217	0.244	0.275	0.31	0.35
in acetonitrile	0.00434	0.00523	0.00624	0.00737	0.00879	0.0104	0.0122	0.0143
in ethanol	0.0152	0.0181	0.0216	0.0254	0.0297	0.0349	0.041	0.0478
in ethyl acetate	0.0228	0.0258	0.0297	0.0336	0.0378	0.0426	0.0478	0.0538
in isobutanol	0.00938	0.0114	0.014	0.0166	0.0201	0.024	0.028	0.033
in isopropanol	0.0133	0.0161	0.019	0.0224	0.0266	0.0314	0.0362	0.0426
in isopropyl acetate	0.0146	0.017	0.0196	0.023	0.027	0.031	0.0361	0.0413
in methanol	0.0136	0.016	0.0193	0.0225	0.0264	0.0312	0.0367	0.0424
in methyl acetate	0.0265	0.0302	0.0338	0.038	0.0428	0.0483	0.0539	0.06
in n-butanol	0.0178	0.0213	0.0255	0.0308	0.0366	0.0434	0.0515	0.0608
in n-butyl acetate	0.0165	0.0191	0.0227	0.0261	0.0296	0.034	0.039	0.0446
in n-propanol	0.016	0.019	0.0227	0.027	0.032	0.0379	0.0441	0.0519
in n-propyl acetate	0.0191	0.0221	0.0251	0.0293	0.0335	0.038	0.0432	0.049
